Key:
[1] = system: Guinea Pig Tracheal Muscle; assay: Test with Guinea Pig Tracheal Muscle: relaxation of spontaneous tension; type: cell-based, male Hartley guinea pig; conditions: Cavia porcellus; concentration exhibiting 50% relaxing activity, relaxing activity of 1 mM aminophylline taken as 100%, 37° C.
Description: Test with Guinea Pig Tracheal Muscle
The trachea was excised from a male Hartley guinea pig (450 to 550 g) to make chain preparations. The preparation was suspended in a bath containing the same Krebs-Henseleit solution as used in Test Example 1 (37° C.) through which a mixed gas of 95% O2 and 5% CO2 was bubbled. Isometric contractions of the preparation were recorded under a tension of 1 g.
The same test compounds as used in Test Example 1 were used.

[2] = system: histamine-induced increase in respiratory tract inner pressure; assay: Study on Antiasthmatic Activity: inhibition of histamine-induced increase in respiratory tract inner pressure; type: in vivo, male Hartley guinea pig; conditions: Cavia porcellus; dose for 50% inhibition of histamine-induced increase in respiratory tract inner pressure; intraduodenal, anesthetized guinea pig
Description: Study on Antiasthmatic Activity
A mid-line incision was made in the neck of a male Hartley guinea pig (600 to 800 g, CRJ) under anesthesia with pentobarbitar (40 mg/kg, i.p.). The trachea, the left […], and the left carotid artery were exposed, and a cannula was inserted into each of them. The inner pressure of the respiratory tract was measured while applying artificial respiration through the tracheal cannula. The blood pressure was measured through the arterial cannula, and the heart rate was determined from the pulse. Pentobarbital for anesthesia maintenance was continuously administered through the venous cannula. A mid-line incision was made on the abdomen to expose the duodenum, and a cannula for intraduodenal administration was inserted thereinto. After the postoperative convalescence of 30 to 60 minutes, histamine (5 to 10 μg/kg) was intravenously administered every 10 minutes. After it was confirmed that a respiratory tract inner pressure rise reaction was stably obtained, a test compound in the form of a 0.3% CMC suspension was intraduodenally administered. The histamine dose was so selected that the respiratory tract inner pressure might rise to 20 to 40 cmH2 O after every lntravenous administration. After administration of the test compound, intravenous administration of histamine at 10 minutes intervals was continued. The histamine-induced increase in respiratory tract inner pressure after the administration of the test compound was compared with that before the administration.

[3] = system: Excised Aorta of Rat; assay: Test with Excised Aorta of Rat: relaxation of lasting contraction following KCl (30 mM) addition; type: cell-based, male Sprague Dawley rat; conditions: rat thoracic aorta rings, 30 mM KCl contraction, 37° C.
Description: Test with Excised Aorta of Rat
The thoracic aorta was excised from a male Sprague Dawley rat (450 to 600 g) and cut into 2 mm wide ring preparations. Each preparation was suspended in 10 ml of an organ bath containing a Krebs-Henseleit solution (NaCl:119; KCl:4.8; CaCl2 ·2H2 O: 2.53; KH2 PO4 :1.2; MgSO4 ·7H2 O: 1.2; NaHCO3 : 24.8; glucose: 10 (mM); 37° C.) under a tension of 2 g, and a mixed gas of 95% O2 and 5% CO2 was bubbled therethrough. Isometric contractions of the preparation were recorded by means of an FD pick-up. […] The activity of a test compound to relax a lasting contraction following the KCl addition was evaluated by obtaining a 50% inhibitory concentration (IC50).
The compounds of the present invention obtained in the foregoing Examples and, for comparison, Cromakalim were used as test compounds.

| Structure (SMILES) | IC50 [1] [nM] | ED50 [2] [mg/kg] | IC50 [3] [nM] |
| --- | --- | --- | --- |
| CN=C(NC#N)C1=CC(C)(C)Oc2ccc([N+](=O)[O-])cc21 [Compound 12, N-Cyano-N'-methyl-6-nitro-2,2-dimethyl-2H-1-benzopyran-4-carboxamidine] | 23 | 0.1 to 0.3 | 11 |
| CCNC(=S)C1=CC(C)(C)Oc2ccc([N+](=O)[O-])cc21 [Compound 113] | 11 |  | 3.7 |
| CNC(=S)C1=CC(C)(C)Oc2ccc([N+](=O)[O-])cc21 [Compound 8, N,2,2-Trimethyl-6-nitro-2H-1-benzopyran-4-carbothioamide] | 6.3 | 0.1 to 0.3 | 1.4 |
| CNC(=O)C1=CC2(CCCCC2)Oc2ccc([N+](=O)[O-])cc21 [Compound 186] | 11 |  | 0.042 |
| CNC(=S)C1=CC(C)(C)Oc2ccc(Br)cc21 [Compound 134] | 75 |  | 9.3 |
| CNC(=S)C1=CC(C)(C)Oc2ccc(C(F)(F)F)cc21 [Compound 104] | 37 |  | 2.6 |
| CNC(=O)C1CC(C)(C)Oc2ccc([N+](=O)[O-])cc21 (stereo not shown) [Compound 22, N-Methyl-3,4-dihydro-6-nitro-2,2-dimethyl-2H-1-benzopyran-4-carboxamide] | 36 | < 0.3 | 14 |
| CCCNC(=S)C1=CC(C)(C)Oc2ccc([N+](=O)[O-])cc21 [Compound 115] | 41 |  | 3 |
| CNC(=S)C1=CC2(CCCC2)Oc2ccc([N+](=O)[O-])cc21 [Compound 128] | 50 |  | 0.037 |
| CNC(=S)C1=CC2(CCCCC2)Oc2ccc([N+](=O)[O-])cc21 [Compound 91] | 38 |  | 0.14 |
| CNC(=S)C1=CC(C)(C)Oc2ccc(C#N)cc21 [Compound 3, N-Methyl-6-cyano-2,2-dimethyl-2H-1-benzopyran-4-carbothioamide] | 200 |  | 33 |
| CC1(C)C=C(C(=S)NC2CC2)c2cc([N+](=O)[O-])ccc2O1 [Compound 137] | 22 |  | 3.7 |
| CCCNC(=O)C1=CC(C)(C)Oc2ccc([N+](=O)[O-])cc21 [Compound 146] | 56 |  | 5.7 |
| CCC1(C)C=C(C(=S)NC)c2cc([N+](=O)[O-])ccc2O1 (stereo not shown) [Compound 90] | 2.9 |  | 0.18 |
| CCN(CC)C(=O)C1=CC(C)(C)Oc2ccc([N+](=O)[O-])cc21 [Compound 193] | 57 | < 0.3 | 6000 |
| CN(C)C(=NC#N)C1=CC(C)(C)Oc2ccc([N+](=O)[O-])cc21 [Compound 11, N^2 -Cyano-N^1,N^1-dimethyl-6-nitro-2,2-dimethyl-2H-1-benzopyran-4-carboxamidine] | 54 | 0.1 | > 30000 |
| CNC(=O)C1=CC(C)(C)Oc2ccc([N+](=O)[O-])cc21 [Compound 10, N-Methyl-6-nitro-2,2-dimethyl-2H-1-benzopyran-4-carboxamide] | 33 | < 0.1 | 11 |
| CCC1(C)C=C(C(=O)NC)c2cc([N+](=O)[O-])ccc2O1 (stereo not shown) [Compound 181] | 16 | 0.1 to 0.3 | 2.1 |
| CC1(C)Oc2ccc(C#N)cc2[C@@H](N2CCCC2=O)[C@@H]1O (relative stereo) [Cromakalim, reference compound] | 790 | 1 to 3 | 180 |
